# In patent US11427548B2 (Arvinas Operations, Inc., priority 2015, dated 2022):
# Like-named read-outs stand apart in the source and are kept apart here.
# Columns and labels:
# Androgen Receptor [1] = target: T1, Androgen Receptor (Homo sapiens, UniProt P10275+P40337, T878A); experiment: Androgen Receptor ELISA assay (PathScan AR ELISA) in LNCaP cells: AR degradation, Dmax and DC50; format: cell-based; conditions: for DC50: concentration that caused 50% Androgen Receptor degradation
# T1 construct: Compounds have been evaluated in this assay in LNCaP and/or VCaP cells utilizing similar protocols; endogenous in cells; host or cells: LNCaP cells
# Androgen Receptor [2] = target: T2, Androgen Receptor (Homo sapiens, UniProt P10275); experiment: Androgen Receptor ELISA assay (PathScan AR ELISA) in VCaP cells: AR degradation, Dmax and DC50; format: cell-based
# T2 construct: endogenous in cells; host or cells: VCaP cells
# T2 sequence (P10275 1-920): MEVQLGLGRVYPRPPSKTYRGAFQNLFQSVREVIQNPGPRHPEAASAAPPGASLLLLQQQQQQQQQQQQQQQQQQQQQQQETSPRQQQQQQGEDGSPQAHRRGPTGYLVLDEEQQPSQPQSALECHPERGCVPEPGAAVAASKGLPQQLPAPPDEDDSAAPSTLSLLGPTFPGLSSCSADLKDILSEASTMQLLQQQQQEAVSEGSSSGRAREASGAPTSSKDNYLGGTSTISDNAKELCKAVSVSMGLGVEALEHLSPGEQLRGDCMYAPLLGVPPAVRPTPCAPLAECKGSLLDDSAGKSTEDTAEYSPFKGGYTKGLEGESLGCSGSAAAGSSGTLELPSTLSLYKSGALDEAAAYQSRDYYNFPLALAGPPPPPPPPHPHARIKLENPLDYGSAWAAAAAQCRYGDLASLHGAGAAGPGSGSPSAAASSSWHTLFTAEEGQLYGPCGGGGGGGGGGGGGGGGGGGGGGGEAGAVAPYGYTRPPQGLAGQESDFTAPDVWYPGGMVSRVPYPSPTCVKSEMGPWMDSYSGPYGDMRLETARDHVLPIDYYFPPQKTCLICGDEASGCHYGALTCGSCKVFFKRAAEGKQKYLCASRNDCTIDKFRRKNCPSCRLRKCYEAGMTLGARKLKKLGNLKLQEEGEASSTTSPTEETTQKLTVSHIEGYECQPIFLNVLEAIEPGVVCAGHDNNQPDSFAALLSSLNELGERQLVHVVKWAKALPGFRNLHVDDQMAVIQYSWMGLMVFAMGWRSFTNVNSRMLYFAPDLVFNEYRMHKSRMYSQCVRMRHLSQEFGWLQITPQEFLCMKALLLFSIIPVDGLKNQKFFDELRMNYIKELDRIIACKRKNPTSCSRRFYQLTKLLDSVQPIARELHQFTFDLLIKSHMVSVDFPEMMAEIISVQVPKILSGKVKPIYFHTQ
# Method in brief: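 VCaP cells, 30,000/well, grown ≥3 days in phenol red-free RPMI with 5% charcoal-stripped FBS; compound added in 0.1% DMSO with 0.1 nM R1881, 7 half-log doses, 24 h. Lysate AR quantified by PathScan sandwich ELISA, HRP/TMB read at 450 nm, giving DC50 and Dmax.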
# [3] = highest percentage of Androgen Receptor degradation observed
# [4] = read-out: VCaP DC50; concentration that caused 50% Androgen Receptor degradation, VCaP cells
# [5] = highest percentage of Androgen Receptor degradation
# T1 sequence (P10275 whole entry T878A): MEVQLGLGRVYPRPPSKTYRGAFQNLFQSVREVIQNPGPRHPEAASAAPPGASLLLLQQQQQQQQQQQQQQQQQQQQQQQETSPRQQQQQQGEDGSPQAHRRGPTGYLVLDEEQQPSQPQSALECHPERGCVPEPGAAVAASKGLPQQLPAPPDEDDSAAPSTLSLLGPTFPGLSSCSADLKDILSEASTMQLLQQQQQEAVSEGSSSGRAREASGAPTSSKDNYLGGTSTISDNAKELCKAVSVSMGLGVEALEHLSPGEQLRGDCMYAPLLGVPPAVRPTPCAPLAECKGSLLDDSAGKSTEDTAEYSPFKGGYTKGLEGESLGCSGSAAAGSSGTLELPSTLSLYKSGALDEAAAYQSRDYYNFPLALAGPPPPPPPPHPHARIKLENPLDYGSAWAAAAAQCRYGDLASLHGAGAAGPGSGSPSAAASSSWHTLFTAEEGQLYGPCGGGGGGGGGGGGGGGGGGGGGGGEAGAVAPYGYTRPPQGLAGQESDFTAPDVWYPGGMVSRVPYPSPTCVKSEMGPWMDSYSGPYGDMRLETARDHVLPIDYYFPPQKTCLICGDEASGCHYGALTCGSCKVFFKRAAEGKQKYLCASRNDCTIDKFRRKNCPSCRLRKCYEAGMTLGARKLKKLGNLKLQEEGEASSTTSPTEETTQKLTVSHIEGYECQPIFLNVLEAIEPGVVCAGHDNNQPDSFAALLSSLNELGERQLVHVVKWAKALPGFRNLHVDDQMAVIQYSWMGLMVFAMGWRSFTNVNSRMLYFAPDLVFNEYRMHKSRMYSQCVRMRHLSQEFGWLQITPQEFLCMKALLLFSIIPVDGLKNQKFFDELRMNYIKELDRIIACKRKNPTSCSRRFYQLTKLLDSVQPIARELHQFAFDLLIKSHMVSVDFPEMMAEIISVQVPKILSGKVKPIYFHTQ
# T1 sequence (P40337 whole entry): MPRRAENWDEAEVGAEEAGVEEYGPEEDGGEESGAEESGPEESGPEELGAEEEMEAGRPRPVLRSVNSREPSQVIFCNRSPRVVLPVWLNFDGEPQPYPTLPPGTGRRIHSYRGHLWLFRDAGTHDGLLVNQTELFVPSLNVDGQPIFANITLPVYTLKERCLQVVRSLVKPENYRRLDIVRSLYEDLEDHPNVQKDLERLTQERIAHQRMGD
# T1 sequence (Q15369 whole entry partner): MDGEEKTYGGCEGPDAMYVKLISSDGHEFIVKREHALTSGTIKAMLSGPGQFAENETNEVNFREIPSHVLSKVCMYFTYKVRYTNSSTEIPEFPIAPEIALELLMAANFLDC
# T1 sequence (Q15370 whole entry partner): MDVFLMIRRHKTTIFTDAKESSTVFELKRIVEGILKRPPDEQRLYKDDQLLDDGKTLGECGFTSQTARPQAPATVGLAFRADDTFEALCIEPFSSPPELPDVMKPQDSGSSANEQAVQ
SMILES,Dmax (Androgen Receptor [1]; [3]) [%],"Dmax (Androgen Receptor [2]; VCaP, read-out: VCaP Dmax (%)) [%]","DC50 (Androgen Receptor [2]; concentration that caused 50% Androgen Receptor degradation, VCaP cells; read-out: VCaP DC50) [nM]",DC50 (Androgen Receptor [1]) [nM],DC50 (Androgen Receptor [2]; [4]) [nM],Dmax (Androgen Receptor [1]; [5]) [%]
"Cc1ncsc1-c1ccc(CNC(=O)[C@@H]2C[C@@H](O)CN2C(=O)[C@@H](NC(=O)COCCCOCCCCCOc2ccc(N3C(=S)N(c4cnc(C#N)c(C(F)(F)F)c4)C(=O)C3(C)C)cc2)C(C)(C)C)cc1 [Example 2, (2S,4R)-1-((S)-2-(2-(3-(5-(4-(3-(6-cyano-5-(trifluoromethyl)pyridin-3-yl)-5,5-dimethyl-4-oxo-2-thioxoimidazolidin-1-yl)phenoxy)pentyloxy)propoxy)acetamido)-3,3-dimethylbutanoyl)-4-hydroxy-N-(4-(4-methylthiazol-5-yl)benzyl)pyrrolidine-2-carboxamide]",> 71,51 to 70,< 50,–,–,–
"Cc1ncsc1-c1ccc([C@H](C)NC(=O)[C@@H]2C[C@@H](O)CN2C(=O)[C@@H](NC(=O)COCCCOCCCCCOc2ccc(N3C(=S)N(c4ccc(C#N)c(C(F)(F)F)c4)C(=O)C3(C)C)cc2)C(C)(C)C)cc1 [Example 4, (2S,4R)-1-[(2S)-2-[2-(3-{[5-(4-{3-[4-cyano-3-(trifluoromethyl)phenyl]-5,5-dimethyl-4-oxo-2-sulfanylideneimidazolidin-1-yl}phenoxy)pentyl]oxy}propoxy)acetamido]-3,3-dimethylbutanoyl]-4-hydroxy-N-[(1S)-1-[4-(4-methyl-1,3-thiazol-5-yl)phenyl]ethyl]pyrrolidine-2-carboxamide]",> 71,51 to 70,–,< 50,< 50,–
Cc1ncsc1-c1ccc(CNC(=O)[C@@H]2C[C@@H](O)CN2C(=O)[C@@H](NC(=O)COCCCOCCCCCOc2ccc(N3C(=S)N(c4ccc(C#N)c(Cl)c4)C(=O)C3(C)C)cc2)C(C)(C)C)cc1 [Example 8],> 71,51 to 70,–,< 50,< 50,–
"Cc1ncsc1-c1ccc([C@H](C)NC(=O)[C@@H]2C[C@@H](O)CN2C(=O)[C@@H](NC(=O)COCCCOCCCCCOc2ccc(N3C(=S)N(c4ccc(C#N)c(C(F)(F)F)c4)C(=O)C3(C)C)cc2F)C(C)(C)C)cc1 [Example 10, (2S,4R)-1-[(2S)-2-[2-(3-{[5-(4-{3-[4-cyano-3-(trifluoromethyl)phenyl]-5,5-dimethyl-4-oxo-2-sulfanylideneimidazolidin-1-yl}-2-fluorophenoxy)pentyl]oxy}propoxy)acetamido]-3,3-dimethylbutanoyl]-4-hydroxy-N-[(1S)-1-[4-(4-methyl-1,3-thiazol-5-yl)phenyl]ethyl]pyrrolidine-2-carboxamide]",> 71,51 to 70,–,< 50,< 50,–
"Cc1ncsc1-c1ccc([C@H](C)NC(=O)[C@@H]2C[C@@H](O)CN2C(=O)[C@@H](NC(=O)COCCCOCCCCCOc2c(F)cc(N3C(=S)N(c4ccc(C#N)c(C(F)(F)F)c4)C(=O)C3(C)C)cc2F)C(C)(C)C)cc1 [Example 11, (2S,4R)-1-[(2S)-2-[2-(3-{[5-(4-{3-[4-cyano-3-(trifluoromethyl)phenyl]-5,5-dimethyl-4-oxo-2-sulfanylideneimidazolidin-1-yl}-2,6-difluorophenoxy)pentyl]oxy}propoxy)acetamido]-3,3-dimethylbutanoyl]-4-hydroxy-N-[(1S)-1-[4-(4-methyl-1,3-thiazol-5-yl)phenyl]ethyl]pyrrolidine-2-carboxamide]",> 71,51 to 70,–,< 50,< 50,–
"Cc1ncsc1-c1ccc(CNC(=O)[C@@H]2C[C@@H](O)CN2C(=O)[C@@H](NC(=O)COCCCOCCC(C)(C)CCOc2ccc(N3C(=S)N(c4ccc(C#N)c(C(F)(F)F)c4)C(=O)C3(C)C)cc2)C(C)(C)C)cc1 [Example 12, (2S,4R)-1-[(2S)-2-[2-(3-{[5-(4-{3-[4-cyano-3-(trifluoromethyl)phenyl]-5,5-dimethyl-4-oxo-2-sulfanylideneimidazolidin-1-yl}phenoxy)-3,3-dimethylpentyl]oxy}propoxy)acetamido]-3,3-dimethylbutanoyl]-4-hydroxy-N-{[4-(4-methyl-1,3-thiazol-5-yl)phenyl]methyl}pyrrolidine-2-carboxamide]",> 71,26 to 50,–,51 to 500,< 50,–
CC(=O)N[C@H](C(=O)N1C[C@H](O)C[C@H]1C(=O)NCc1ccc(-c2scnc2C)cc1OCCOCCOCCOc1ccc(N2C(=S)N(c3ccc(C#N)c(C(F)(F)F)c3)C(=O)C2(C)C)cc1)C(C)C [Example 281],–,–,–,> 501,–,51 to 70
Cc1ncsc1-c1ccc(CNC(=O)[C@@H]2C[C@@H](O)CN2C(=O)[C@@H](NC(=O)c2ccccc2OCCOCCOc2ccc(N3C(=S)N(c4ccc(C#N)c(C(F)(F)F)c4)C(=O)C3(C)C)cc2)C(C)(C)C)cc1 [Example 282],–,–,–,51 to 500,–,51 to 70
Cc1ncsc1-c1ccc(CNC(=O)[C@@H]2C[C@@H](O)CN2C(=O)[C@@H](NC(=O)c2cccc(OCCOCCOc3ccc(N4C(=S)N(c5ccc(C#N)c(C(F)(F)F)c5)C(=O)C4(C)C)cc3)c2)C(C)(C)C)cc1 [Example 283],–,–,–,51 to 500,–,51 to 70
Cc1ncsc1-c1ccc(CNC(=O)[C@@H]2C[C@@H](O)CN2C(=O)[C@@H](NC(=O)c2ccc(OCCCOc3ccc(-c4ccc(N5C(=S)N(c6ccc(C#N)c(C(F)(F)F)c6)C(=O)C5(C)C)cc4)cc3)cc2)C(C)(C)C)cc1 [Example 284],–,–,–,51 to 500,–,26 to 50
Cc1ncsc1-c1ccc(CNC(=O)[C@@H]2C[C@@H](O)CN2C(=O)[C@@H](NC(=O)c2ccc(OCCCCOc3ccc(-c4ccc(N5C(=S)N(c6ccc(C#N)c(C(F)(F)F)c6)C(=O)C5(C)C)cc4)cc3)cc2)C(C)(C)C)cc1 [Example 285],–,–,–,> 501,–,< 25
Cc1ncsc1-c1ccc(CNC(=O)[C@@H]2C[C@@H](O)CN2C(=O)[C@@H](NC(=O)c2ccc(OCCOc3ccc(-c4ccc(N5C(=S)N(c6ccc(C#N)c(C(F)(F)F)c6)C(=O)C5(C)C)cc4)cc3)cc2)C(C)(C)C)cc1 [Example 286],–,–,–,< 50,–,51 to 70
Cc1ncsc1-c1ccc(CNC(=O)[C@@H]2C[C@@H](O)CN2C(=O)[C@@H](NC(=O)c2ccc(C3CCN(CCCCOc4ccc(N5C(=S)N(c6ccc(C#N)c(C(F)(F)F)c6)C(=O)C5(C)C)cc4)CC3)cc2)C(C)(C)C)cc1 [Example 287],–,–,–,> 501,–,51 to 70
Cc1ncsc1-c1ccc(CNC(=O)[C@@H]2C[C@@H](O)CN2C(=O)[C@@H](NC(=O)c2ccc(C3CCN(CCCOc4ccc(N5C(=S)N(c6ccc(C#N)c(C(F)(F)F)c6)C(=O)C5(C)C)cc4)CC3)cc2)C(C)(C)C)cc1 [Example 289],–,–,–,> 501,–,26 to 50
Cc1ncsc1-c1ccc(CNC(=O)[C@@H]2C[C@@H](O)CN2C(=O)[C@@H](NC(=O)COCCCOC2CCN(C(=O)c3ccc(N4C(=S)N(c5ccc(C#N)c(C(F)(F)F)c5)C(=O)C4(C)C)cc3)CC2)C(C)(C)C)cc1 [Example 290],–,–,–,> 501,–,51 to 70
Cc1ncsc1-c1ccc(CNC(=O)[C@@H]2C[C@@H](O)CN2C(=O)[C@@H](NC(=O)c2ccc(OCCOC3CCN(C(=O)c4ccc(N5C(=S)N(c6ccc(C#N)c(C(F)(F)F)c6)C(=O)C5(C)C)cc4)CC3)cc2)C(C)(C)C)cc1 [Example 291],–,–,–,> 501,–,< 25
Cc1ncsc1-c1ccc(CNC(=O)[C@@H]2C[C@@H](O)CN2C(=O)[C@H](C(C)C)N2Cc3ccccc3C2=O)c(OCCO[C@@H]2CCC[C@@H]2OCCOc2ccc(N3C(=S)N(c4ccc(C#N)c(C(F)(F)F)c4)C(=O)C3(C)C)cc2)c1 [Example 304],–,–,–,51 to 500,–,26 to 50
Cc1ncsc1-c1ccc(CNC(=O)[C@@H]2C[C@@H](O)CN2C(=O)[C@@H](NC(=O)CC(=O)CCCOCCCCCOc2ccc(N3C(=S)N(c4ccc(C#N)c(C(F)(F)F)c4)C(=O)C3(C)C)cc2)C(C)(C)C)cc1 [Example 305],–,–,–,51 to 500,–,51 to 70
